Experimental data reported in patent publication US9353072B2, “Antimicrobial substituted thiazoles and methods of use” (Purdue Research Foundation, priority 2012, dated 2016).
In brackets after ≈: the same amount, converted by molar mass. Like-named read-outs stand apart in the source and are kept apart here.

Legend:
[1] = system: MRSA USA800; experiment: MIC broth microdilution, MRSA USA800; format: cell-based; settings: Staphylococcus aureus, Table 2, read-out: Minimum Inhibitory Concentration
Procedure: (§1) Determination of minimum inhibitory concentration (MIC). The MICs of the lead thiazole compound (compound 1a) and nine derivatives tested against all 18 MRSA strains were determined, in triplicate samples, using the broth microdilution method in accordance with the recommendations contained in the CLSI guidelines.

[2] = system: NRS194; experiment: MIC/MBC broth microdilution, NRS194; format: cell-based; settings: Staphylococcus aureus
Method in brief: (§2)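 Compounds were tested in triplicate samples against each MRSA strain, and the MIC was then read by broth microdilution as recommended by CLSI.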

[3] = system: 18 different strains of MRSA and VRSA; experiment: MIC broth microdilution, panel of 18 MRSA and VRSA strains (summary statements); format: cell-based, Staphylococcus aureus; settings: for improvement in the MIC value relative to the lead compound: relative to lead compound 1a, number of strains as stated in the sentence
Procedure: as §1

[4] = system: MRSA NRS384 (USA300); experiment: MIC/MBC broth microdilution, NRS384 (USA300); format: cell-based; settings: Staphylococcus aureus
Method in brief: as §2

[5] = system: NRS107; experiment: MIC/MBC broth microdilution, NRS107; format: cell-based; settings: Staphylococcus aureus
Method in brief: as §2

[6] = system: VISA HIP07256 (NRS19); experiment: MIC/MBC broth microdilution, NRS19 (VISA HIP07256); format: cell-based; settings: Staphylococcus aureus
Method in brief: as §2

[7] = system: MRSA ATCC 700699 (NRS1, VISA); experiment: MIC/MBC broth microdilution, NRS1 (ATCC 700699); format: cell-based; settings: Staphylococcus aureus
Method in brief: as §2

[8] = system: MRSA USA500 (NRS385); experiment: MIC/MBC broth microdilution, NRS385 (USA500); format: cell-based; settings: Staphylococcus aureus
Method in brief: as §2

[9] = system: MRSA USA100; experiment: MIC broth microdilution, MRSA USA100; format: cell-based; settings: Staphylococcus aureus; Table 2; MRSA USA100; read-out: Minimum Inhibitory Concentration
Procedure: as §1

[10] = system: murine macrophage cells (J774.A1); experiment: In vitro cytotoxicity analysis, MTS assay; format: cell-based; settings: 16 μM, 24 hours
Procedure: In vitro cytotoxicity analysis: Compounds were assayed at concentrations of 2 μM, 4 μM, 8 μM, and 16 μM against a macrophage cell line (J774.A1) to determine the potential toxic effect in vitro. Murine macrophage cells were cultured in Dulbeco's Modified Eagle Medium (Sigma-Aldrich, St. Louis, Mo., USA) with 10% Fetal Bovine Serum (USA Scientific, Inc.) at 37° C. with 5% CO2. Controls received DMSO alone at a concentration equal to that in drug-treated cell samples. The cells were incubated with the compounds in a 96-Well Plate at 37° C. and 5.0% CO2 for 24 hours prior to addition of the assay reagent MTS 3-(4,5-dimethylthiazol-2-yl)-5-(3-carboxymethoxyphenyl)-2-(4-sulfophenyl)-2H-tetrazolium) (Promega, Madison, Wis., USA). The reagent measures the succinate dehydrogenase mitochondrial activity as an indicator of cell viability and proliferation. Corrected absorbance readings (actual absorbance readings for each treatment subtracted from background absorbance) were taken using a kinetic ELISA microplate reader (Molecular Devices, Sunnyvale, Calif., USA). The quantity of viable cells after treatment with each compound was expressed as a percentage of the control, DMSO.

[11] = system: VRSA (VRS10); experiment: MIC/MBC broth microdilution, VRSA (VRS10); format: cell-based, Staphylococcus aureus; settings: for MIC: Staphylococcus aureus, read-out: Minimum Inhibitory Concentration
Procedure: as §1

[12] = system: MRSA USA200; experiment: MIC broth microdilution, MRSA USA200; format: cell-based; settings: Staphylococcus aureus; Table 2; MRSA USA200; read-out: Minimum Inhibitory Concentration
Procedure: as §1

[13] = system: NRS108; experiment: MIC broth microdilution, NRS108; format: cell-based; settings: Staphylococcus aureus, Table 2, read-out: Minimum Inhibitory Concentration
Procedure: as §1

[14] = system: MRSA USA700; experiment: MIC broth microdilution, MRSA USA700; format: cell-based; settings: Staphylococcus aureus, Table 2, read-out: Minimum Inhibitory Concentration
Procedure: as §1

[15] = system: NRS119; experiment: MIC/MBC broth microdilution, NRS119; format: cell-based; settings: Staphylococcus aureus
Method in brief: as §2

[16] = system: MRSA (USA300); experiment: Time-kill assay; format: cell-based, Staphylococcus aureus; settings: 3.0×MIC; for bactericidal effect in time-kill assay: 12 hour incubation at 37° C.; for time to eliminate MRSA completely (reduce CFU to zero): MRSA (USA300)
Procedure: Time-kill assay. […] Viable CFU/mL was determined by serial dilution and plating on trypticase soy agar (TSA) (Becton, Dickinson and Company, Sparks, Md., USA) plates after 0, 2, 4, 6, 8, 10, and 12 hours of incubation at 37° C. to identify the time required to reduce the bacterial cell count by 3-log10.

[17] = system: MRSA ATCC 43300; experiment: MIC/MBC broth microdilution, MRSA ATCC 43300; format: cell-based, Staphylococcus aureus; settings: Staphylococcus aureus
Method in brief: as §2

[18] = system: VISA LIM 3 (NRS37); experiment: MIC/MBC broth microdilution, NRS37 (VISA LIM 3); format: cell-based; settings: Staphylococcus aureus
Method in brief: as §2

[19] = system: MRSA USA400 (NRS123); experiment: MIC/MBC broth microdilution, NRS123 (USA400); format: cell-based; settings: Staphylococcus aureus
Method in brief: as §2

[20] = system: MRSA ATCC 43300; experiment: Flow cytometry with LIVE/DEAD Fixable Dead Cell Stain; format: cell-based, Staphylococcus aureus; settings: compound 1a at 4.0×MIC; lysostaphin positive control; 10 minutes at 37° C.
Procedure: Flow cytometry and LIVE/DEAD® Fixable Dead Cell Stain: The action of the lead compound on cell membrane permeability of MRSA was assayed using the LIVE/DEAD® Fixable Dead Cell Stain Kit (Invitrogen, Eugene, Oreg., USA) according to the manufacturer's instructions. […] Post-treatment cells were fixed with 3.7% formaldehyde; the cells were then screened with a Beckman Coulter FC500 flow cytometer.

[21] = Table 2, read-out: Minimum Inhibitory Concentration
[22] = Table 2, MRSA USA300, read-out: Minimum Inhibitory Concentration
[23] = Table 2, VISA HIP07256, read-out: Minimum Inhibitory Concentration
[24] = Table 2, MRSA ATCC 700699, read-out: Minimum Inhibitory Concentration
[25] = Table 2, MRSA USA500, read-out: Minimum Inhibitory Concentration
[26] = Table 2, NRS119, read-out: Minimum Inhibitory Concentration
[27] = Table 2, VISA LIM 3, read-out: Minimum Inhibitory Concentration

C/C(=N\NC(=N)N)c1sc(-c2ccc(C(C)(C)C)cc2)nc1C [Compound 1g, 2-{1-[2-(4-(tert-Butyl)phenyl)-4-methylthiazol-5-yl]ethylidene}hydrazinecarboximid-amide]
MIC [1]: 1 µg/mL (≈ 3.04 µM)
MIC [2, 21]: 1.9 µg/mL
improvement in the MIC value relative to the lead compound [3]: nearly two- to five-fold enhancement
MIC [4, 22]: 1 µg/mL
MIC [5, 21]: 1 µg/mL
MIC [6, 23]: 1.9 µg/mL
MIC [7, 24]: 1.9 µg/mL
MIC [8, 25]: 1 µg/mL
MIC [9]: 1 µg/mL (≈ 3.04 µM)
toxicity toward murine macrophage cells [10]: exhibited toxicity
MIC ([11]; Table 2, VRSA): 1 µg/mL
MIC [12]: 1.9 µg/mL (≈ 5.77 µM)

CCCCCc1ccc(-c2nc(C)c(/C(C)=N/NC(=N)N)s2)cc1 [Compound 1d]
MIC [1]: 0.5 µg/mL (≈ 1.46 µM)
MIC [2, 21]: 1.1 µg/mL
MIC [5, 21]: 0.5 µg/mL
MIC [7, 24]: 0.5 µg/mL
MIC [13]: 1.1 µg/mL (≈ 3.2 µM)
MIC [14]: 1.1 µg/mL (≈ 3.2 µM)
MIC [8, 25]: 1.1 µg/mL
MIC [15, 26]: 1.1 µg/mL
bactericidal effect in time-kill assay [16]: bactericidal
time to eliminate MRSA completely (reduce CFU to zero) [16]: within two hours
MIC ([17]; Table 2, MRSA ATCC 43300, read-out: Minimum Inhibitory Concentration): 0.8 µg/mL
MIC [18, 27]: 0.5 µg/mL

C/C(=N\NC(=N)N)c1sc(-c2ccc(C3=CCCCC3)cc2)nc1C [Compound 7, 2-{1-[2-(4-(1-Cyclohexenyl)phenyl)-4-methylthiazol-5-yl]ethylidene}hydrazine-carboximidamide]
MIC [1]: 0.6 µg/mL (≈ 1.7 µM)
MIC [2, 21]: 0.6 µg/mL
improvement in the MIC value relative to the lead compound [3]: two- to four-fold improvement
MIC [4, 22]: 1.2 µg/mL
MIC [5, 21]: 0.6 µg/mL
MIC [6, 23]: 0.6 µg/mL
MIC [7, 24]: 0.6 µg/mL
MIC [13]: 2.3 µg/mL (≈ 6.51 µM)
MIC [8, 25]: 1.2 µg/mL
MIC [15, 26]: 0.6 µg/mL
MIC [9]: 1.2 µg/mL (≈ 3.39 µM)
toxicity toward murine macrophage cells [10]: none were observed to be toxic
MIC ([11]; Table 2, VRSA): 1.3 µg/mL
MIC [12]: 1.2 µg/mL (≈ 3.39 µM)
MIC ([19]; Table 2, MRSA USA400, read-out: Minimum Inhibitory Concentration): 0.6 µg/mL
MIC [18, 27]: 0.6 µg/mL

CCCCc1ccc(-c2nc(C)c(/C(C)=N/NC(=N)N)s2)cc1 [Compound 1a]
MIC [1]: 2.8 µg/mL (≈ 8.5 µM)
MBC ([2]; Table 8, read-out: MBC): 4 µM (≈ 1.32 µg/mL)
MIC ([2]; Table 8, read-out: MIC): 4 µM
concentration inhibiting growth (MIC), range over the strains tested ([3]; 18 strains of MRSA and VRSA): 1.4 to 5.5 µg/mL
MIC [4, 22]: 1.4 µg/mL
MIC ([4]; Table 5, MRSA NRS384 (USA300), 128 μM down to 1.0 μM, 37° C., 19 hours, read-out: Minimum Inhibitory Concentration): 4 µM
MBC ([4]; Table 8, NRS384, read-out: MBC): 4 µM (≈ 1.32 µg/mL)
MIC ([4]; Table 8, NRS384, read-out: MIC): 4 µM
MBC ([5]; Table 8, read-out: MBC): 8 µM (≈ 2.64 µg/mL)
MIC ([5]; Table 8, read-out: MIC): 8 µM
MIC [6, 23]: 1.4 µg/mL
MBC ([6]; Table 8, NRS19 (VISA), read-out: MBC): 8 µM (≈ 2.64 µg/mL)
MIC ([6]; Table 8, NRS19 (VISA), read-out: MIC): 4 µM
MIC [7, 24]: 1.4 µg/mL
MIC ([7]; Table 7, VISA (NRS1), read-out: Minimum Inhibitory Concentration): 16 µM
MBC ([7]; Table 8, NRS1 (VISA), read-out: MBC): 8 µM (≈ 2.64 µg/mL)
MIC ([7]; Table 8, NRS1 (VISA), triplicates, 20 hours, read-out: MIC): 4 µM
MIC [14]: 1.4 µg/mL (≈ 4.25 µM)
MIC [8, 25]: 1.4 µg/mL
MBC ([8]; Table 8, NRS385, read-out: MBC): 4 µM (≈ 1.32 µg/mL)
MIC ([8]; Table 8, NRS385, read-out: MIC): 4 µM
MIC ([15]; NRS 119 / VISA, Table 7, VISA (NRS119), read-out: Minimum Inhibitory Concentration): 4 µM
MBC ([15]; Table 8, NRS119, read-out: MBC): 8 µM (≈ 2.64 µg/mL)
MIC ([15]; Table 8, NRS119, read-out: MIC): 8 µM
MIC [9]: 5.5 µg/mL (≈ 16.7 µM)
bactericidal effect in time-kill assay [16]: bactericidal
time to eliminate MRSA completely (reduce CFU to zero) [16]: within two hours
MIC ([17]; Table 4, MRSA ATCC 43300, 64 μM down to 0.5 μM, 37° C., 19 hours, read-out: Minimum Inhibitory Concentration): 4 µM
MIC ([17]; Table 7, MRSA (ATCC 43300), read-out: Minimum Inhibitory Concentration): 4 µM
MBC ([17]; Table 8, ATCC 43300, read-out: MBC): 4 µM (≈ 1.32 µg/mL)
MIC ([17]; Table 8, ATCC 43300, read-out: MIC): 4 µM
MIC ([11]; Table 7, VRSA (VRS10)): 4 µM
MBC ([19]; Table 8, NRS123, read-out: MBC): 4 µM (≈ 1.32 µg/mL)
MIC ([19]; Table 8, NRS123, read-out: MIC): 4 µM
MIC [18, 27]: 1.4 µg/mL
MBC ([18]; Table 8, NRS37 (VISA), read-out: MBC): 8 µM (≈ 2.64 µg/mL)
MIC ([18]; Table 8, NRS37 (VISA), read-out: MIC): 8 µM
cells stained with the dye [20]: 1.5%

C/C(=N\NC(=N)N)c1sc(-c2ccc3ccccc3c2)nc1C [Compound 1h, 2-{1-[4-Methyl-2-(naphthalen-2-yl)thiazol-5-yl]ethylidene}hydrazinecarboximid-amide]
MIC [2, 21]: 1.9 µg/mL
MIC [5, 21]: 1.9 µg/mL
MIC [6, 23]: 1.9 µg/mL
MIC [7, 24]: 3.8 µg/mL
MIC [13]: 1.9 µg/mL (≈ 5.87 µM)
MIC [14]: 1.9 µg/mL (≈ 5.87 µM)
MIC [8, 25]: 1.9 µg/mL
toxicity toward murine macrophage cells [10]: exhibited toxicity
MIC ([11]; Table 2, VRSA): 0.5 µg/mL
reduction in MIC compared to 1a against VRSA ([11]; VRSA): near three-fold reduction
MIC [12]: 1.9 µg/mL (≈ 5.87 µM)

lysostaphin: positive control; disrupts the cross-linking of the pentaglycin bridges in the cell wall of staphylococci [reference compound]
cells stained with the dye [20]: 45%
